Laboratory results published in patent US20230241057A1, “COMPOUNDS FOR THE PREVENTION, TREATMENT AND DIAGNOSIS OF THROMBI” (INSERM (INSTITUT NATIONAL DE LA SANTÉ ET DE LA RECHERCHE …, priority 2020, published 2023).

Tests used:
[1] = system: extracellular chromatin (NETs); test: Extracellular chromatin (NETs) binding to coated nitinol disks, Sytox Green staining; parameters: species or system human; conditions: for Chomatin binding (% of max): coated nitinol disks applied 3 minutes on nigericin-stimulated human neutrophils, mean±SEM, 6/coating; for Chromatin/Platelet binding ratio: ratio of chromatin binding to platelet binding (% of max)
Description: (§1) Nitinol disks are left untouched (bare metal) or coated with the tested chromatin ligands following a polydopamine, DBCO-PEG4-amine and azide derivative ligand sequential dip-coating layering procedure.
Extracellular chromatin adhering to the disk surface was stained with the cell impermeant nuclear dye Sytox Green.
(§2) Each dot corresponds to the mean binding (% of max, mean±SEM) of chromatin (X-axis) and platelet (Y-axix) with the standard error bars parallel to the respective axis.
(§3) Different linkers were combined with piperaquine and the resulting azide derivatives were used for coating nitinol disks (N=6 for each compound), following the described 3-step dip-coating procedure. Platelet adhesion (left panel) was evaluated by analyzing the surface and intensity of the phalloidin staining (green fluorescence) after immersion of the disks (N^o=6/coating) for 10 min in blood withdrawn in PPAK (thrombin inhibitor providing a transient anticoagulation). The binding of extracellular chromatin was evaluated by applying for 3 minutes the disks on the bottom of wells in which fresh human neutrophils were stimulated with nigericin for 4 hours, to promote the formation of neutrophil extracellular traps (NETs). Extracellular chromatin was stained with the cell impermeant nuclear dye Sytox Green.

blood platelets = test: Platelet adhesion to coated nitinol disks, phalloidin-AlexaFluor 488 staining; format: cell-based; conditions: for Platelet binding (% of max): coated nitinol disks immersed 10 min in blood withdrawn in PPAK, mean±SEM, 6/coating
Description: as §1, §2, §3

[2] = system: thrombus material (DNA and proteins); conditions: coated nitinol disks vs bare metal; thrombus slice 5 minutes at 37° C. in human plasma; Hoechst 33342 / Evans Blue staining
Description: Polydopamine (1 mg/ml in tris buffer, pH 8.5, 22±2 hours)
A fresh thrombus was prepared with human whole blood additioned with PMA 100 nM and ionomycin 1 μM to promote strong leukocyte activation leading to the release of extracellular chromatin within the thrombus. Slice of the same thrombus were layered onto coated and bare metal disks in the wells of a 48-well plate, covered with human plasma and incubated at 37° C. on an orbital shaker for 5 minutes. The thrombus slices were mechanically removed using tweezers, the disk washed in PBS and stained with a solution made of Hoechst 33342 (1 μg/ml, to stain DNA) and Evans Blue (3%, to stain proteins) in PBS for 5 minutes. […] The image analysis was performed using the Image J open software.

[3] = coated disk compared to bare metal

## O=C(O)c1cn(C2CC2)c2cc(N3CCNCC3)c(F)cc2c1=O [Ciprofloxacin, reference compound]
[1]
  Chomatin binding (% of max): 23.63 ± 9.59 % of max
Blood platelets
  Platelet binding (% of max): 27.57 ± 3.22 % of max

## Cn1cc(NC(=O)c2cc(NC(=O)c3cc(NC=O)cn3C)cn2C)cc1C(=O)NCCC(=N)N [Distamycin, reference compound]
[1]
  Chomatin binding (% of max): 12.26 ± 4.14 % of max
  Chromatin/Platelet binding ratio: 0.99
Blood platelets
  Platelet binding (% of max): 12.42 ± 1.72 % of max

## CCCCCOCCCCCN=[N+]=[N-] [Pipe-2]
[1]
  Chomatin binding (% of max): 57.5 7.05 % of max
  Chromatin/Platelet binding ratio: 3.59
Blood platelets
  Platelet binding (% of max): 16 ± 5.78 % of max

## CSc1ccc2c(c1)N(CCC1CCCCN1C)c1ccccc1S2 (centres unmarked) [thioridazine]
[2]
  DNA and proteins captured from the thrombus (Integrated Density): capture more DNA and proteins

## [N-]=[N+]=NCCOCCOCCNC(=O)c1cc2cc(N(CCCl)CCCl)ccc2o1 [MBF, N-(2-(2-(2-azidoethoxy)ethoxy)ethyl)-5-(bis(2-chloroethyl)amino)benzofuran-2-carboxamide]
[1]; [3]
  Chromatin binding (example disk image, in words): high
[1]
  Chomatin binding (% of max): 66.07 ± 13.21 % of max
  Chromatin/Platelet binding ratio: 2.85
Blood platelets; [3]
  Platelet binding (example disk image, in words): low platelet binding
Blood platelets
  Platelet binding (% of max): 23.18 ± 4.05 % of max

## [N-]=[N+]=NCCOCCOCCNC(=O)CCc1ccc(N(CCCl)CCCl)cc1 [PPM, N-(2-(2-(2-azidoethoxy)ethoxy)ethyl)-3-(4-(bis(2-chloroethyl)amino)phenyl)propanamide]
[1]
  Chomatin binding (% of max): 36.75 ± 5.78 % of max
  Chromatin/Platelet binding ratio: 0.75
Blood platelets
  Platelet binding (% of max): 48.8 ± 5.59 % of max
